US20130040882A1, “USE OF FIBROBLAST GROWTH FACTOR FRAGMENTS” (NOVARTIS AG, priority 2003, published 2013)
Like-named read-outs stand apart in the source and are kept apart here.

Test system: transcript levels in tissues (GH/IGF and glucagon/insulin axes, SSTR signalling)
Assay type: in vivo, cynomolgus monkeys

Substance: cyclo[4-(NH2—C2H4—NH—CO—O)Pro-Phg-DTrp-Lys-Tyr(4-Bzl)-Phe] [SOM230]
- Calcium/calmodulin-dependent protein kinase (CaM kinase) II β expression ↑ (fold change) (spleen): II β ↑ x2
- Calmodulin 1 (phosphorylase kinase, δ) expression ↑ (fold change) (spleen): kinase, δ) ↑ x2
- Calmodulin 2 (phosphorylase kinase, δ) expression ↑ (fold change) (spleen): kinase, δ) ↑ x1.5
- Caspase 8, apoptosis-related cysteine protease expression ↑ (fold change) (spleen): ↑ x2.5
- Cdk 2 expression ↑ (fold change) (spleen): Cdk 2 ↑ x1.5
- Cdk 5, regulatory subunit 1 (p35) expression ↑ (fold change) (spleen): 1 (p35) ↑ x2
- Cdk 6 expression ↑ (fold change) (spleen): Cdk 6 ↑ x3
- Cyclin D2 expression ↑ (fold change) (spleen): x1.5
- Cyclin I expression ↓ (fold change) (spleen): Cyclin I ↓ x1.5
- Death-associated protein expression ↑ (fold change) (spleen): protein ↑ x1.5
- Dopamine receptor D4 expression ↓ (fold change) (spleen): receptor D4 ↓ x2
- EGF (β-urogastrone) expression ↓ (fold change) (spleen): urogastrone) ↓ x2
- Follistatin-like 1 expression ↑ (fold change) (spleen): ↑ x1.5
- Gastric inhibitory polypeptide receptor expression ↑ (fold change) (spleen): ↑ x2
- Gene expression (AvgDiff): IGF-1 (spleen): 85
- Gene expression (AvgDiff): IGFBP6 (spleen): 1,043
- Gene expression (AvgDiff): SSTR2 (spleen): 93
- HGF activator inhibitor precursor expression ↑ (fold change) (spleen): x1.5
- IFN regulatory factor 2 expression ↑ (fold change) (spleen): factor 2 ↑ x3.5
- IFN-inducible RNA-dependent protein kinase expression ↑ (fold change) (spleen): ↑ x2.5
- IFNγ receptor 2 (IFNγ transducer 1) expression ↑ (fold change) (spleen): x1.5
- IFNγ responsive transcript expression ↑ (fold change) (spleen): ↑ x2
- IGF-1 expression ↑ (fold change) (spleen): IGF-1 ↑ x1.5
- IGFBP6 expression ↑ (fold change) (spleen): IGFBP6 ↑ x2.5
- IL 1 receptor-like 1 expression ↑ (fold change) (spleen): 1 ↑ x2
- IL-8 receptor type B expression ↑ (fold change) (spleen): B ↑ x1.5
- IP-4-phosphatase, type 1, isoform b expression ↑ (fold change) (spleen): ↑ x2
- K+ large conductance Ca++-activated channel, subfamily M, β member 1 expression ↑ (fold change) (spleen): ↑ x2.5
- K+ voltage-gated channel, shaker-related subfamily, member 3 expression ↓ (fold change) (spleen): member 3 ↓ x3
- LTb4 (chemokine rceptor-like 1) expression ↑ (fold change) (spleen): rceptor-like 1) ↑ x3
- Nuclear factor of activated T-cells, cytoplasmic, calcineurin-dependent 1 expression ↓ (fold change) (spleen): dependent 1 ↓ x5
- PDGF, α polypeptide expression ↑ (fold change) (spleen): polypeptide ↑ x2.5
- PDGFR, α polypeptide expression ↑ (fold change) (spleen): polypeptide ↑ x1.5
- PI-3-kinase, catalytic, α polypeptide expression ↓ (fold change) (spleen): polypeptide ↓ x2.5
- PI-3-kinase, class 2, β polypeptide expression ↑ (fold change) (spleen): ↑ x1.5
- PI-3-kinase, class 3 expression ↑ (fold change) (spleen): 3 ↑ x2
- PKC, α binding protein expression ↑ (fold change) (spleen): protein ↑ x2
- PLA2 expression ↑ (fold change) (spleen): PLA2 ↑ x2
- PTHR 1 expression ↓ (fold change) (spleen): PTHR 1 ↓ x2.5
- Phosphatidyl inositol glycan, class B expression ↑ (fold change) (spleen): B ↑ x1.5
- Programmed cell death 10 expression ↑ (fold change) (spleen): death 10 ↑ x1.5
- Putative chemokine receptor; GTP-binding protein expression ↑ (fold change) (spleen): ↑ x2.5
- Rb binding protein expression ↑ (fold change) (spleen): ↑ x2
- Rb-binding protein 8 expression ↑ (fold change) (spleen): 8 ↑ x1.5
- S-phase kinase-associated protein 1A (p19A) expression ↑ (fold change) (spleen): 1A (p19A) ↑ x2
- SSTR2 expression ↑ (fold change) (spleen): SSTR2 ↑ x2
- Solute carrier family 9 (Na+/H+ exchanger) isoform 3 regulatory factor 1 expression ↑ (fold change) (spleen): ↑ x10.5
- TGF induced protein expression ↑ (fold change) (spleen): protein ↑ x1.5
- TGFβ receptor III (betaglycan, 300 kD) expression ↓ (fold change) (spleen): ↓ x1.5
- TNF (cachectin) expression ↑ (fold change) (spleen): ↑ x2
- TNF (ligand) superfamily, member 13 expression ↑ (fold change) (spleen): member 13 ↑ x2.5
- TNFR superfamily, member 12 expression ↑ (fold change) (spleen): member 12 ↑ x1.5
- Tumour protein p53-binding protein expression ↑ (fold change) (spleen): ↑ x1.5
- VEGF expression ↑ (fold change) (spleen): VEGF ↑ x1.5
- Vasodilatator-stimulated phosphoprotein expression ↑ (fold change) (spleen): phosphoprotein ↑ x2
- β adrenergic receptor kinase 1 expression ↑ (fold change) (spleen): kinase 1 ↑ x3
- S-phase kinase-associated protein 1A expression ↑ (fold change) (spleen, second entry, without (p19A)): 1A ↑ x2
- ATPase, Ca++ transporting, cardiac muscle, fast twitch 1 expression ↓ (fold change) (thyroid): ↓ x4.5
- Adenylate cyclase activating polypeptide precursor expression ↓ (fold change) (thyroid): x1.5
- Adrenergic, α-2C-, receptor expression ↓ (fold change) (thyroid): ↓ x2.5
- Bcl-2 binding component 3 expression ↓ (fold change) (thyroid): ↓ x2
- Brain cannabinoid receptor 1 expression ↓ (fold change) (thyroid): ↓ x2
- CD2 antigen (cytoplasmic tail)-binding protein 2 expression ↑ (fold change) (thyroid): ↑ x3.5
- CD2 antigen (p50), sheep red blood cell receptor expression ↓ (fold change) (thyroid): ↓ x7.5
- COL1A1 and PDGFB fusion transcript expression ↓ (fold change) (thyroid): transcript ↓ x6
- Cadherin 13, H-cadherin (heart) expression ↑ (fold change) (thyroid): ↑ x2
- Calcium/calmodulin dependent protein kinase 1 expression ↓ (fold change) (thyroid): ↓ x2
- Calcium/calmodulin-dependent PK IV expression ↓ (fold change) (thyroid): IV ↓ x7.5
- Calmodulin-dependent PK IV (CaM-kinase IV) expression ↓ (fold change) (thyroid): IV) ↓ x7.5
- Cannabinoid receptor 2 (macrophage) expression ↑ (fold change) (thyroid): ↑ x3
- Cdc-like 5 (cholinesterase-related cell division controller) expression ↓ (fold change) (thyroid): x2
- Cdk 5, regulatory subunit 1 (p35) expression ↓ (fold change) (thyroid): subunit 1 (p35) ↓ x5
- Cdk (CDC2-like) expression ↓ (fold change) (thyroid): Cdk (CDC2-like) ↓ x9
- Chemokine (C-X-C motif), receptor 4 (fusin) expression ↓ (fold change) (thyroid): ↓ x3
- Chole-cystokinin B receptor expression ↓ (fold change) (thyroid): receptor ↓ x3
- Cyclin B2 expression ↓ (fold change) (thyroid): Cyclin B2 ↓ x2.5
- DAG 1 kinase, α (80 kD) expression ↓ (fold change) (thyroid): (80 kD) ↓ x4
- Egf-like module containing, mucin-like, hormone receptor-like sequence 1 expression ↓ (fold change) (thyroid): sequence 1 ↓ x5
- FKBP-associated protein expression ↓ (fold change) (thyroid): protein ↓ x2.5
- Flt3 ligand expression ↓ (fold change) (thyroid): Flt3 ligand ↓ x4.5
- Fms-related tyrosine kinase 1(VEGF/vascular permeability factor receptor) expression ↓ (fold change) (thyroid): ↓ x2
- GABA (A) receptor, γ2 precursor expression ↓ (fold change) (thyroid): ↓ x1.5
- GABA (B) receptor 1, isoform a precursor expression ↑ (fold change) (thyroid): ↑ x2.5
- Gastric inhibitory polypeptide 1 receptor expression ↓ (fold change) (thyroid): receptor ↓ x2
- Gene expression (AvgDiff): IGF-1 (thyroid): 58
- Glutamate receptor, metabotropic 2 precursor expression ↓ (fold change) (thyroid): precursor ↓ 3.5
- Growth arrest-specific 1 expression ↓ (fold change) (thyroid): 1 ↓ x2.5
- IFNα-inducible protein 27 expression ↑ (fold change) (thyroid): 27 ↑ x3
- IFNγ responsive transcript expression ↓ (fold change) (thyroid): ↓ x1.5
- IFNγ-inducible protein 30 expression ↑ (fold change) (thyroid): protein 30 ↑ x3.5
- IGF-1 expression ↓ (fold change) (thyroid): IGF-1 ↓ x1.5
- IL2-inducible T-cell kinase expression ↓ (fold change) (thyroid): ↓ x12
- IL9 receptor expression ↓ (fold change) (thyroid): IL9 receptor ↓ x2
- IP3 receptor type 3 expression ↓ (fold change) (thyroid): type 3 ↓ x1.5
- K+ voltage-gated channel, shaker-related subfamily, member 3 expression ↓ (fold change) (thyroid): ↓ x4.5
- LTB4 receptor (chemokine receptor-like 1) expression ↓ (fold change) (thyroid): ↓ x1.5
- Lymphocyte specific protein tyrosine kinase expression ↓ (fold change) (thyroid): ↓ x4
- P56lck expression ↓ (fold change) (thyroid): P56lck ↓ x18
- PDGF-associated Protein expression ↑ (fold change) (thyroid): Protein ↑ x2
- PDGFR α expression ↓ (fold change) (thyroid): ↓ x3
- PDGFR β expression ↑ (fold change) (thyroid): ↑ x2
- PIP 5-phosphatase type IV expression ↓ (fold change) (thyroid): type IV ↓ x3
- PLC, γ1 (formerly subtype 148) expression ↓ (fold change) (thyroid): ↓ x2
- Phosphatidyl ethanolamine N-methyltransferase expression ↑ (fold change) (thyroid): ↑ x2
- Pro-platelet basic protein (includes platelet basic protein, β-thromboglobulin, connective tissue-activating peptide III, neu) 2 expression ↑ (fold change) (thyroid): 2 ↑ x3.5
- RAG1 expression ↓ (fold change) (thyroid): RAG1 ↓ x18
- RAG2 expression ↓ (fold change) (thyroid): RAG2 ↓ x5
- RANTES expression ↑ (fold change) (thyroid): RANTES ↑ x10.5
- SH2 domain protein 1A, Duncan's disease (lymphoproliferative syndrome) expression ↓ (fold change) (thyroid): ↓ x7.5
- Signalling lymphocytic activation molecule expression ↓ (fold change) (thyroid): ↓ x4.5
- Solute carrier family 21 (PG transporter), member 2 expression ↑ (fold change) (thyroid): member 2 ↑ x2
- TCR ζ chain precursor expression ↓ (fold change) (thyroid): ↓ x5.5
- TNF (ligand) superfamily, member 10 expression ↑ (fold change) (thyroid): ↑ x2
- TSHR expression ↓ (fold change) (thyroid): TSHR ↓ x2
- Thrombospondin 2 expression ↑ (fold change) (thyroid): 2 ↑ x2
- Transcription factor 7 (T-cell specific, HMG-box) expression ↓ (fold change) (thyroid): box) ↓ x16.5
- VWF precursor expression ↑ (fold change) (thyroid): precursor ↑ x2
- c-AMP responsive element binding protein 1 expression ↓ (fold change) (thyroid): protein 1 ↓ x2
- Endothelial differentiation-related factor 1 expression, direction of change (thyroid, arrow only, factor not given): related factor 1 ↑
